Test [1] addresses T1, E35D↑G↑S mutant HIV-1 subtype C protease (Human immunodeficiency virus type 1 group M subtype C, UniProt Q994Q3, D118E/E93D/I94G/INS93GS). The note with it: mutant-wild type. As for the experimental part:
Quenching experiments were performed according to the method reported by Maseko et al.[15]. Spectrofluorimetry was used to determine structural changes induced in HIV protease by the interaction of the inhibitors with the purified enzymes using Jasco V-630 spectrofluorimeter (Jasco International co., LTD, Japan). The excitation wavelength was fixed at 295 nm, the wavelength at which tryptophan absorbs and the emission wavelength measured was at […]. The change in fluorescence of a solution was monitored over 10 min, as increasing concentrations of inhibitors were added to a reaction mixture of HIV protease in 50 mM sodium acetate, 1 M NaCl, pH 5 in a final volume of […]. All fluorescence quenching experiments were performed at 4 different temperatures (293 K, 298 K, 303 K, 310 K). The following equations are applicable. (1) F0/F=1+KsvQ (2) lnKsv=−(ΔH/RT)+(ΔS/R) where F0 and F are the florescence in the absence and presence of quencher, Ksv is the Stern Volmer constant, Q is the quencher (drug), ΔH is the enthalpy, ΔS is entropy, R is the gas constant and T is the experimental temperature. The equation is developed from Van’t Hoff relationship. (3) ΔG=RTlnKi
Thermodynamic parameters were calculated from the Stern Volmer and Van’t Hoff plots (Figures S3 and S4). From these plots, ΔH and ΔS values for each drug were calculated. ΔG values were calculated from the Ki values from Equation (3).

Test [2] has as its target T1, E35D↑G↑S mutant HIV-1 subtype C protease. Put plainly: biochemical. Conditions: for IC50: E35D↑G↑S IC50, mutant E35D↑G↑S, n = 3; for Ki ratio / reduced activity in comparison to the wildtype: mutant versus wild type; for ΔΔG: mutant-wild type; for log vitality: v = (Ki × Kcat/Km)MUT/(Ki × Kcat/Km)WT, wild type as reference; for ΔG (Gibbs free binding energy): calculated from Ki, ΔG=RTlnKi. On the procedure:
(§1) Enzymatic activity of the HIV-1 C-SA and mutant (E35D↑G↑S) protease was measured by following the hydrolysis of the HIV-PR chromogenic substrate, Lys-Ala-Arg-Val-Nle-nPhe-Glu-Ala-Nle-NH2 as reported before[13]^,[15]. The substrate resembles the conserved protease cleavage site, KARVL/AEAM[8] between the capsid protein and the […] in the Gag-polyprotein precursor. Hydrolysis of the HIV chromogenic substrate was characterised by the decrease in absorbance at 300 nm. Catalytic properties such as the Km, kcat, and kcat/Km of the proteases were determined. All catalytic activity assays were performed using a Jasco V-630 spectrophotometer (Jasco International co., LTD, Japan).
(§2) This was done by monitoring the rate of chromogenic substrate hydrolysis using 2 µM protease in 50.0 mM sodium acetate, 0.1 M NaCl, pH 5.0, and (0–250 µM) substrate in increasing amounts of inhibitor (0–10 nM).
This is done by introducing the term “vitality” which is a measure of resistance. Vitality, v, is defined as v = (Ki × Kcat/Km)MUT/(Ki × Kcat/Km)WT, and predicts the therapeutic effect of a given protease inhibitor.
(§3) The Ki values were estimated using a competitive inhibition equation (Equation 1) according to Williams et al..

Test [3] deals with wild type C-SA HIV protease (Human immunodeficiency virus type 1 group M subtype C, UniProt Q994Q3). Put plainly: Inhibition of chromogenic substrate hydrolysis by wild type C-SA HIV protease. The class given is biochemical, HIV-1 subtype C. The note with it: for IC50: wild type C-SA protease, n = 3, read-out: WT IC50; for Ki / ΔG (Gibbs free binding energy): wild type; for Ki: 37 °C, pH 5.0; for ΔG (Gibbs free binding energy): calculated from Ki, ΔG=RTlnKi. As for the experimental part: as §1, §2, §3

Values joined by “and” are separate entries in the source; they are usually repeats but may differ in a detail not shown here. Equal entries are not always repeated.

The values that follow come from article PMC6713120, “Kinetic and thermodynamic characterisation of HIV-protease inhibitors against E35D↑G↑S mutant in the South African HIV-1 subtype C protease” (Journal of Enzyme Inhibition and Medicinal Chemistry, 2019).

As a reminder, the Ki is a dissociation constant, usually derived from enzyme kinetics or from competition with a known ligand. Read a high Ki as weaker binding. In general, IC50 refers to the concentration at which inhibition is half-maximal. With `COC(=O)N[C@H](C(=O)N[C@@H](Cc1ccccc1)[C@@H](O)CN(Cc1ccc(-c2ccccn2)cc1)NC(=O)[C@@H](NC(=O)OC)C(C)(C)C)C(C)(C)C` [ATV, Atazanavir], in test [1], the ΔΔH was 3.1 ± 0.1 and the “−TΔΔS” value was −1.5 ± 0.1. In addition, in test [2], the Ki is 145 nM, the IC50 turned out to be 685 ± 3 nM, the Ki ratio was found to be 1828 ± 2.0 and the ΔΔG was determined as 4.6 ± 0.2 kcal/mol. In test [2], the log vitality result was “highest vitality value”. In test [3], the concentration for half-maximal inhibition (IC50) came to 1.07 ± 0.08 nM, the inhibition constant (Ki) was 0.0776 nM and the “ΔG (Gibbs free binding energy)” value is -14.35 kcal/mol.

Regarding `Cc1c(O)cccc1C(=O)N[C@@H](CSc1ccccc1)[C@H](O)CN1C[C@H]2CCCC[C@H]2C[C@H]1C(=O)NC(C)(C)C` [NFV, Nelfinavir], in test [1], the ΔΔH is recorded as 2.3 ± 0.0 and the “−TΔΔS” value is −1.8 ± 0.0. Also, in test [2], the inhibition constant (Ki) was 174 nM, half-maximal inhibition (IC50) required 1401 ± 3 nM, the Ki ratio is reported as 532 ± 2 and the ΔΔG was 4.1 ± 0.2 kcal/mol. Further, in test [2], the log vitality entry is recorded as “around two”. In test [3], the half-inhibitory concentration (IC50) was determined as 1.99 ± 0.05 nM.

As for `Cc1cccc(C)c1OCC(=O)N[C@@H](Cc1ccccc1)[C@@H](O)C[C@H](Cc1ccccc1)NC(=O)[C@H](C(C)C)N1CCCNC1=O` [LPV, Lopinavir], in test [1], the ΔΔH is recorded as −13.1 ± 0.9 and the “−TΔΔS” value turned out to be 14.7 ± 0.1. In test [2], half-maximal inhibition (IC50) required 51.7 ± 0.8 nM, the Ki ratio is on record as 12 ± 0.1, the ΔΔG was 1.6 ± 0.3 kcal/mol and the log vitality is approximately 1.00. Also, in test [3], the half-maximal inhibitory concentration (IC50) came to 2.99 ± 0.01 nM.

`CC(C)(C)NC(=O)[C@@H]1CN(Cc2cccnc2)CCN1C[C@@H](O)C[C@@H](Cc1ccccc1)C(=O)N[C@H]1c2ccccc2C[C@H]1O` [IDV, Indinavir]: in test [1], the ΔΔH was −0.1 ± 0.0 and the “−TΔΔS” value was 1.8 ± 0.3. Moreover, in test [2], the IC50 amounted to 33.6 ± 1 nM, the Ki ratio stood at 20 ± 0.5, the ΔΔG is on record as 1.9 ± 0.6 kcal/mol and the log vitality is approximately 1.00. Besides, in test [3], the half-maximal inhibitory concentration (IC50) worked out at 3.44 ± 0.06 nM.

For `CCC[C@@]1(CCc2ccccc2)CC(O)=C([C@H](CC)c2cccc(NS(=O)(=O)c3ccc(C(F)(F)F)cn3)c2)C(=O)O1` [TPV, Tipranavir], in test [1], the ΔΔH was determined as 3.2 ± 0.2 and the “−TΔΔS” value was −7.1 ± 0.1. Besides, in test [2], 203 ± 2.6 nM corresponded to half-maximal inhibition (IC50), the Ki ratio is on record as 292 ± 4.0, the ΔΔG is given as 3.7 ± 0.1 kcal/mol and the log vitality result is given as “around two”. In test [3], the concentration for half-maximal inhibition (IC50) is 1.55 ± 0.02 nM, the Ki is 0.513 nM and the “ΔG (Gibbs free binding energy)” value was -13.19 kcal/mol.

With `CC(C)c1nc(CN(C)C(=O)N[C@H](C(=O)N[C@@H](Cc2ccccc2)C[C@H](O)[C@H](Cc2ccccc2)NC(=O)OCc2cncs2)C(C)C)cs1` [RTV, Ritonavir], in test [1], the ΔΔH was found to be 6.8 ± 0.1 and the “−TΔΔS” value is listed as 5.8 ± 0.2. The “ΔG (Gibbs free binding energy)” value in test [2] (mutant E35D↑G↑S) is -12.96 kcal/mol. Further, in test [2], the “reduced activity in comparison to the wildtype” value stood at 5 folds; the ΔΔG was 0.93 kcal/mol and 0.9 ± 0.1 kcal/mol; the log vitality turned out to be 0.30.

As to `CC(C)CN(C[C@@H](O)[C@H](Cc1ccccc1)NC(=O)O[C@H]1CO[C@H]2OCC[C@H]21)S(=O)(=O)c1ccc(N)cc1` [DRV, Darunavir], in test [1], the ΔΔH is reported as 2.1 ± 0.0 and the “−TΔΔS” value is reported as −1.8 ± 0.1. In test [2], the IC50 worked out at 154 ± 2 nM, the Ki ratio is listed as 560 ± 3.0, the ΔΔG amounted to 3.9 ± 0.5 kcal/mol and the log vitality result is reported as “around two”. The IC50 in test [3] came out at 1.07 ± 0.04 nM.

With `CC(C)CN(C[C@@H](O)[C@H](Cc1ccccc1)NC(=O)O[C@H]1CCOC1)S(=O)(=O)c1ccc(N)cc1` [APV, Amprenavir], in test [1], the ΔΔH is 12.9 ± 0.8 and the “−TΔΔS” value is 12.1 ± 0.2. In test [2], the IC50 was 4.1 ± 0.05 nM; the Ki ratio stood at 4 ± 0.1; the “reduced activity in comparison to the wildtype” value is recorded as 4 folds; the ΔΔG is 0.80 kcal/mol and 0.80 ± 0.1 kcal/mol. In addition, the log vitality in test [2] was 0.36. Further, the “ΔG (Gibbs free binding energy)” value in test [2] (mutant E35D↑G↑S) was -13.12 kcal/mol. Besides, the “log Ki” value in test [2] (mutant E35D↑G↑S, logarithm of Ki in nM, 37 °C, pH 5.0) is listed as “negative”. For the same compound, the concentration for half-maximal inhibition (IC50) in test [3] was found to be 0.81 ± 0.04 nM.

On to `CC(C)(C)NC(=O)[C@@H]1C[C@@H]2CCCC[C@@H]2CN1C[C@@H](O)[C@H](Cc1ccccc1)NC(=O)[C@H](CC(N)=O)NC(=O)c1ccc2ccccc2n1` [SQV, Saquinavir], for which, in test [1], the ΔΔH came to 2.9 ± 0.1 and the “−TΔΔS” value was 0.4 ± 0.0. For the same compound, in test [2], the midpoint of inhibition, the IC50, lay at 114 ± 1.2 nM; the Ki ratio is on record as 215 ± 2.0; the ΔΔG stood at 3.3 ± 0.5 kcal/mol; the log vitality result is “around two”. In addition, the 50% inhibitory concentration (IC50) in test [3] turned out to be 0.77 ± 0.05 nM.
